# Read-outs that look alike come from different tables or passages of the source.
# Tests used:
# off-target kinases [1] = test: SelectScreen Kinase Profiling, biochemical single point inhibition; details: 1000 μM
# Description: (§1) Biochemical single point inhibition and IC50 concentrations for TBK1, IKKε (IKBKE), and off-target kinases were determined at ThermoFisher Scientific using SelectScreen Kinase Profiling Services (Madison, WI, USA) (Tables S4A and S4B-1-7). To determine cellular potency, the human colorectal cancer carcinoma cell line HCT116 (ATCC, Manassas, VA) was maintained in T175 flasks in complete RPMI medium; RPMI 1640 supplemented with 10% FBS, 1× Penicillin-Streptomycin solution and 1× MEM (non-essential amino acids). HCT116 cells were grown to 90-95% confluency in T175 flasks containing complete RPMI medium and transfected in bulk using Lipofectamine 2000 (Invitrogen, Carlsbad, CA) with 70 μg of ISG54-luciferase reporter plasmid (Elim Biopharmaceuticals Inc., Hayward, CA). The reporter plasmid contains a luciferase gene expression cassette under the transcriptional regulation of the promoter of the human interferon stimulated gene 54 (ISG54). Transfection of the cells was allowed to take place for 6 hours, after which the cells were harvested by treatment with 0.25% trypsin EDTA (Corning Inc., Corning, NY). Trypsinized cells were added to 384-well poly-d-lysine treated black clear bottom tissue culture assay plates (Greiner Bio-One GmbH, Kremsmunster, Austria) at a density of 20,000 cells/well in 80 μL of complete RPMI medium and incubated overnight. After 16-18 hours post-transfection, the assay plates were washed with PBS (Corning Inc., Corning, NY), followed by addition of 80 μL/well of serum-free RPMI 1640 medium containing 1× Penicillin-Streptomycin solution, 1× MEM and 350 nL of DMSO or titrations of Compound 1. Compound 1 titrations were generated by 1.5-fold dilution steps in two overlapping serial dilution series to generate a 40-point compound dose range. After incubation at 37° C. for 1 hour, the cells were stimulated with Poly(I:C) (InvivoGen, San Diego, CA) at a final concentration of 15 μg/mL in Optimem media (Life Technologies, Rockville, MD). The assay plates were incubated for 5 hours at 37° C., followed by addition of One-Glo luciferase firefly reagent (Promega, Madison, WI) at 1:1 volume/well and luminescence was measured in an EnVision Multilabel Plate Reader (PerkinElmer, Santa Clara, CA). The EC50 values were calculated from the fit of the dose-response curves to a four-parameter equation. All EC50 values represent geometric mean values of a minimum of four determinations.
# off-target kinases [2] = target: T1, off-target kinases (Homo sapiens, UniProt Q02156); test: as above; details: ATP Km, ZLYTE
# T1 sequence (Q02156 1-737): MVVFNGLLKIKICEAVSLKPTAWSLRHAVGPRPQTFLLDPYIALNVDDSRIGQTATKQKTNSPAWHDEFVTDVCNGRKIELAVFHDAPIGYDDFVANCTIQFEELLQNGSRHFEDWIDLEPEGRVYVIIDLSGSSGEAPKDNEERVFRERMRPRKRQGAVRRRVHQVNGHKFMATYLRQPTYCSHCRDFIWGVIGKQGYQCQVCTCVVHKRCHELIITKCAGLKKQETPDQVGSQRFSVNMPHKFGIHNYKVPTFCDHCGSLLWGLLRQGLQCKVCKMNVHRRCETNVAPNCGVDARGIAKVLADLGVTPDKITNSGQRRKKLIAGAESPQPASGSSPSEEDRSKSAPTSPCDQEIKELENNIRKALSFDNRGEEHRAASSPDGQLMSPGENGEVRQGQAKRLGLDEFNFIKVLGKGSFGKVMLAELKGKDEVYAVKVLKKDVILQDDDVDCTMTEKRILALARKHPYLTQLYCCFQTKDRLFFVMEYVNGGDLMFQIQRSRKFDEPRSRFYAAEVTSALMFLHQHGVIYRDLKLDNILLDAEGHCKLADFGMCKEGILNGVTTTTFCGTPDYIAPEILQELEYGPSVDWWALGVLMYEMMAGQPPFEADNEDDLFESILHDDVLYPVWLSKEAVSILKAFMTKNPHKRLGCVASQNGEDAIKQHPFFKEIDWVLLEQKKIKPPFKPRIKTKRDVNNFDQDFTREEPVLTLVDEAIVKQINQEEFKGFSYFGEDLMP
# Description: as §1
# off-target kinases [3] = target: off-target kinases (Homo sapiens, UniProt Q16644); test: as above; details: MAPKAPK3, ATP Km app, ZLYTE
# Chain of off-target kinases (Homo sapiens, UniProt Q16644) (Q16644 whole entry): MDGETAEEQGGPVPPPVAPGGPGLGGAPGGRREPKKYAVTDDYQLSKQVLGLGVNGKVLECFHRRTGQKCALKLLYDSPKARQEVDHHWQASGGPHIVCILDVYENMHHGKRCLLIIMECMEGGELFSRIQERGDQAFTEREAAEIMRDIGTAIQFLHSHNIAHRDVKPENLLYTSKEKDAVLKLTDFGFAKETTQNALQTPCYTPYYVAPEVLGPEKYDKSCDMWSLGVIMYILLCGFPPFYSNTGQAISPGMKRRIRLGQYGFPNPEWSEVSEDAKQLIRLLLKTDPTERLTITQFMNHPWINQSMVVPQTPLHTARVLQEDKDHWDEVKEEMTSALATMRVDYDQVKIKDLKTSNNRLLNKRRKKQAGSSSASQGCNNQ
# Description: as §1
# MC38 allograft = test: In vivo Compound 1 combination treatment, allograft; set-up: species or system B6 mice; details: Cmpd1 + αPD-L1; not significant vs single-agent PD-L1
# [4] = EGFR (ErbB1) d746-750 (mutant), LanthaScreen Binding
# [5] = PRKCB2 (PKC beta II), ATP Km app, ZLYTE
# [6] = TEK (TIE2) mutant (mutation name not given), LanthaScreen
structure (smiles),measurement,setting,value
"N#Cc1cc(-c2ncnc(Nc3ccc(N4CCN(C5COC5)CC4)cc3)n2)ccc1OC1CCOCC1 [Compound 1, 5-(4-((4-(4-(oxetan-3-yl)piperazin-1-yl)phenyl)amino)-1,3,5-triazin-2-yl)-2-((tetrahydro-2H-pyran-4-yl)oxy)benzonitrile]",% Inhibition 1,off-target kinases [1]; [4],14%
same,% Inhibition 2,off-target kinases [1]; [4],13%
same,% Inhibition Avg,off-target kinases [1]; [4],14%
same,% Inhibition 1,"off-target kinases [1]; FLT3 ITD, LanthaScreen Binding",64%
same,% Inhibition 2,"off-target kinases [1]; FLT3 ITD, LanthaScreen Binding",62%
same,% Inhibition Avg,"off-target kinases [1]; FLT3 ITD, LanthaScreen Binding",63%
same,% Inhibition 1,"off-target kinases [1]; FYN A, LanthaScreen Binding",16%
same,% Inhibition Avg,"off-target kinases [1]; FYN A, LanthaScreen Binding",18%
same,% Inhibition 1,"off-target kinases [1]; LYN B, ATP Km app, ZLYTE",56%
same,% Inhibition 2,"off-target kinases [1]; LYN B, ATP Km app, ZLYTE",50%
same,% Inhibition Avg,"off-target kinases [1]; LYN B, ATP Km app, ZLYTE",53%
same,% Inhibition 2,"off-target kinases [1]; MAP3K7/MAP3K7IP1 (TAK1-TAB1), LanthaScreen Binding",22%
same,% Inhibition 1,off-target kinases [1]; [5],12%
same,% Inhibition 2,off-target kinases [1]; [5],8%
same,% Inhibition Avg,off-target kinases [1]; [5],10%
same,% Inhibition 1,"off-target kinases [1]; SRC N1, ATP Km app, ZLYTE",54%
same,% Inhibition 2,"off-target kinases [1]; SRC N1, ATP Km app, ZLYTE",60%
same,% Inhibition Avg,"off-target kinases [1]; SRC N1, ATP Km app, ZLYTE",57%
same,% Inhibition 1,off-target kinases [1]; [6],40%
same,% Inhibition 2,off-target kinases [1]; [6],41%
same,% Inhibition Avg,off-target kinases [1]; [6],41%
same,inhibition,"off-target kinases [2]; PRKCE (PKC), read-out: % Inhibition 1",1%
same,inhibition,"off-target kinases [2]; PRKCE (PKC), read-out: % Inhibition Avg",-3%
same,inhibition,"off-target kinases [2]; PRKCE PKC, read-out: % Inhibition 2",-6%
same,inhibition,off-target kinases [3]; read-out: % Inhibition 1,1%
same,inhibition,off-target kinases [3]; read-out: % Inhibition 2,-8%
same,inhibition,off-target kinases [3]; read-out: % Inhibition Avg,-3%
same,"in vivo survival, MC38 model, combination treatment",MC38 allograft,enhanced

# — US12116636B2, “Methods for evaluating tumor cell spheroids using 3D microfluidic cell culture device” (Dana-Farber Cancer Institute, Inc., priority 2017, dated 2024)
